Patent US9849134B2, “Method of improving cognition and social behavior in humans having deficits therein due to neurodegenerative disorders and compounds and compositions therefor” (The Board of Trustees of the Leland Stanford Junior …, priority 2014, dated 2017)
Entries after “also recorded” stand apart in the source; their conditions may differ. Where a name gives a salt, the structure may show the parent alone. Read-outs that look alike come from different tables or passages of the source. Each block holds one compound with its values, some of them ahead of it. * marks the point of attachment. Myristoyl = CCCCCCCCCCCCCC(=O)*

How the values were obtained:
C57B1/6 mice [1] = test: Social recognition tests (in-home cage social discrimination, 3-chamber) in C57B1/6 mice; type: in vivo
Description: (§1) Behavioral testing. […] Drug treatment. […] Betaxolol was injected sub-cutaneously (1 mg/kg) or in the MeA (30 nmole/side). PKI 14-22 amide was dissolved in 30% acetonitrile and injected in the MeA (2.75 nmole/side).

[2] = test system: Thy1-hAPP^Lond/Swe+ line transgenic mice; test: Activity chamber test (locomotor activity) in Thy1-hAPP^Lond/Swe+ mice; type: in vivo; conditions: 0.3 and 1 mg/kg s.c., chronic, after 1 month
[3] = Xamoterol concentration in plasma and brain after s.c. injection; type: in vivo; conditions: mice; for concentration at 30 min / concentration at 1 h / concentration at 2 h: C57Bl/6, mouse, sc, 3 mg/kg s.c.
Description: Mice are euthanized at 3, 15, 30, 60, 120, 240 and 360 minutes after drug administration. Blood is drawn by cardiac puncture and collected in heparinized tubes. Plasma is immediately separated by centrifugation and stored at −80° C. until assay. For tissue distribution studies, tissue samples from the brain, heart, kidney, liver and spleen are collected 60 and 120 minutes after drug administration. The tissue samples are homogenized using 0.9% saline at a ratio of 1:2. The homogenates are stored at −80° C. until analysis. […] 2(2): p.

[4] = test system: Thy1-hAPP^Lond/Swe+ line transgenic mice; test: Fear conditioning test in Thy1-hAPP^Lond/Swe+ mice; type: in vivo; conditions: 0.3 and 1 mg/kg s.c., chronic, after 2.5 months
pCREB [5] = test: Western blot of pCREB in C57B1/6 mice; type: in vivo
Description: (§2) Molecular analyses. Immunohistochemistry was used to assess c-Fos, tyrosine hydroxylase (TH) and β1-ADR. The quantitative analysis of stained cells was done in different brain regions according to the Mouse Brain Atlas. Cell counting was achieved using the unbiased-stereologic method. The total number of positive cells was quantified with the optical fractionator method using the StereoInvestigator software (MBF Bioscience, Williston, Vt., USA). The counting criteria were determined so as to obtain a mean coefficient of error ≦0.10. Analysis of pCREB was performed by western blot.
We then tested whether pharmacological modulation of β1-ADR affects CREB phosphorylation in the MeA in the context of social learning.

β-arrestin pathway = β-arrestin pathway activation; type: cell-based
Thy1-APP^Lond/Swe+ mice = test: Working memory in Thy1-APP^Lond/Swe+ mice; type: in vivo; conditions: acute s.c. 3 mg/kg
pCREB [6] = test: Western blot of pCREB in medial amygdala of APP mice and WT controls; type: in vivo
Description: as §2, with “Immunohistochemistry was used to assess c-Fos, tyrosine hydroxylase (TH) and β1-ADR.” left out, “blot. […] It was reported that in Alzheimer's disease several phosphorylated proteins and transcription factors are preferentially located in the cytoplasm (vs. the nucleus) and are thus inefficient in inducing expression of genes important for learning and memory.” for “blot.”

mice and rats = conditions: cited from earlier work
5xFAD mice = test: Chronic dosing in 5xFAD mouse model of AD (memory, Morris-Water Maze, microglia, plaques); type: in vivo
[7] = test system: humans with heart failure; conditions: 200 mg twice daily for 2-12 months; cited from earlier work
wild type mice = test: Cardiac safety after chronic treatment in wild type mice; type: in vivo; conditions: 3 months
[8] = test system: Thy1-hAPP^Lond/Swe+ mice (APP); test: Social recognition test in APP mouse model of AD; type: in vivo
Description: as §1

β2-ADR KO mice = conditions: 3 mg/kg
Description: (§3) Behavioral testing. Social recognition was tested in two different tests: the 3-chamber social test developed by Nadler et al and the in-home cage social discrimination task developed by Macbeth et al. To differentiate between social recognition and recognition of non-social odors/objects non-social odor discrimination tests (olfactory habituation/dishabituation and olfactory recognition test) and an object recognition test were used.

C57BI/6 mice = conditions: single dose 1 mg/kg
C57B1/6 mice [9] = test system: C57B1/6 mice
Description: as §3
We assessed the ability of C57B1/6 mice to recognize a previously-met conspecific after an acute subcutaneous injection of various doses of a selective β1-ADR antagonist, betaxolol (0.01, 0.1 and 1 mg/kg).

c-Fos = test system: c-Fos
Description: as §2
Brain regions involved in social recognition have already been defined. Among them are the lateral septum, prefrontal cortex and MeA. […] We used c-Fos as a marker of neuronal activity and compared its expression in a group of C57B1/6 mice after social learning with a group of mice after both social learning and social recognition.

[10] = 1 mg/kg, 20 minutes prior to learning phase

Compound: PKI 14-22 amide myristoylated (Myristoyl-SGRTGRRNA-NH2; SMILES CCCCCCCCCCCCCC(=O)N[C@@H](CO)C(=O)NCC(=O)N[C@@H](CCCNC(=N)N)C(=O)N[C@H](C(=O)NCC(=O)N[C@@H](CCCNC(=N)N)C(=O)N[C@@H](CCCNC(=N)N)C(=O)N[C@@H](CC(N)=O)C(=O)N[C@@H](C)C(N)=O)[C@@H](C)O; UniProt P61925 14-22, looked up, fragment) [PKA inhibitor]
Preference for unfamiliar conspecific over empty cup after injection in the MeA (C57B1/6 mice [1]; 2.75 nmole in the MeA): did not affect
Social recognition after injection in the MeA (C57B1/6 mice [1]; 2.75 nmole in the MeA): impaired the ability of mice to recognize between a new and familiar conspecific

concentration at 30 min ([3]; brain, read-out: Brain): 168 ± 6.4 ng/mL
concentration at 1 h ([3]; brain, read-out: Brain): 116 ± 9.1 ng/mL
concentration at 2 h ([3]; brain, read-out: Brain): 125 ± 7.4 ng/mL
concentration at 30 min ([3]; plasma, read-out: Plasma): 274 ± 75.9 ng/mL
concentration at 1 h ([3]; plasma, read-out: Plasma): 45.1 ± 6.1 ng/mL
concentration at 2 h ([3]; plasma, read-out: Plasma): 4.7 ± 0.7 ng/mL
Compound: O=C(NCCNCC(O)COc1ccc(O)cc1)N1CCOCC1 (racemic) [xamoterol, 1-p-Hydroxyphenoxy-3-beta-(morpholinocarbonamido)ethyl-amino-2-propanol hydrogen fumarate]
Hyperactivity phenotype (locomotor activity) [2]: dose-dependent reversal of hyperactivity phenotype
Passage of the BBB [3]: passes the BBB and reach the central nervous system
Cognitive functioning (fear conditioning test) [4]: dose-dependent improvement in cognitive functioning
pCREB expression in mice brain (pCREB [5]; 3 mg/kg s.c., after 15 minutes): significant increase of pCREB
pCREB expression in MeA vs baseline (pCREB [5]; 3 mg/kg, 5 min after injection): increased
Effect on β-arrestin pathway (β-arrestin pathway): no effect on the β-arrestin pathway
Working memory deficit (Thy1-APP^Lond/Swe+ mice): rescued; also recorded: rescues working memory and social recognition deficits
Total pCREB in MeA of APP mice after social learning (pCREB [6]; APP mice): no significant increase
pCREB in MeA of WT littermates after social learning (pCREB [6]; WT animals): induced an increase in pCREB
Nuclear pCREB level in medial amygdala of APP mice (pCREB [6]; injection prior to social learning, nuclear fraction): significantly higher
Retrieval deficit in mice with NA deficiency (mice and rats; mice with NA deficiency): can be rescued
Activated microglia and Aβ plaque clearance (5xFAD mice): increased activated microglia and Aβ plaque clearance
Performance in the Morris-Water Maze (escape latency, time in thigmotaxis) (5xFAD mice): improved
Declarative memory deficit (5xFAD mice; daily oral 6 mg/kg over 3 months, 6 mg/kg): rescued; also recorded: rescues the declarative and spatial memory deficits
Side effects of chronic treatment in humans [7]: without any significant side effects
Cardiovascular functions (BP, heart rate, EF, FS, HW/BW) (wild type mice; 3 mg/kg s.c., vs vehicle): did not develop pathological changes in cardiac functions; also recorded: did not show significant difference in cardiovascular functions
Myocardial fibrosis (wild type mice; 3 mg/kg s.c., vs vehicle): did not induce cardiac fibrosis; also recorded: did not show significant difference
Myocardial structure (Masson's trichrome staining) (wild type mice; 3 mg/kg, s.c.): did not produce changes in myocardial structure
Social recognition deficit of APP mice ([8]; 3 mg/kg systemic (s.c.), acute, prior to testing): rescued the social recognition deficit
Preference for unfamiliar intruder over empty cup ([8]; 3 mg/kg, WT and APP mice): did not affect the preference

Compound: CC(C)NCC(O)COc1ccc(CCOCC2CC2)cc1 (stereo not drawn) [betaxolol]
Social recognition in β2-ADR KO mice (β2-ADR KO mice): effectively impaired social recognition abilities
Contextual memory (C57BI/6 mice): impairment of contextual memory
pCREB expression in MeA after 5 minutes of social interaction (pCREB [5]; 1 mg/kg, 60 minutes before social learning): significantly decreased
Ability to recognize a familiar odor or object over a new one (C57B1/6 mice [9]; 1 mg/kg): not affected
Non-social odor habituation, dishabituation and recognition (C57B1/6 mice [9]; 1 mg/kg): did not impair non-social odor recognition
Non-social odor recognition (heptanol / heptanol:octanol) (C57B1/6 mice [9]; betaxolol vs vehicle): did not impair non-social order recognition
Social recognition after injection in the MeA (C57B1/6 mice [1]; 30 nmole in the MeA): impairs social recognition
Social recognition: preference for novel intruder over familiar one (C57B1/6 mice [1]; 0.01 mg/kg s.c.): showed this preference
Social recognition: preference for novel intruder over familiar one (C57B1/6 mice [1]; 0.1 mg/kg s.c.): did not show a preference
Social recognition: preference for novel intruder over familiar one (C57B1/6 mice [1]; 1 mg/kg s.c.): did not show a preference
Long-term social memory, 24 hours after learning phase (C57B1/6 mice [1]; [10]): impaired long-term social memory
Short term social recognition, dosing before learning phase (C57B1/6 mice [1]; [10]): impaired short term social recognition
Social recognition, dosing before retrieval phase (C57B1/6 mice [1]; 1 mg/kg, 30 minutes prior to retrieval phase): did not impair social recognition
Social recognition in 3-chamber test (C57B1/6 mice [1]; 1 mg/kg, systemic injection prior to learning phase): impairs social recognition
Social learning: preference for unfamiliar mouse over empty cup (C57B1/6 mice [1]; 0.01 to 1 mg/kg): did not affect social learning
Number of c-Fos positive cells in the MeA (c-Fos; 1 mg/kg prior to social recognition task): decreased the number of c-Fos positive cells in the MeA
Number of c-Fos positive cells in the thalamus (PV) (c-Fos; injection prior to social recognition task): did not affect the number of c-Fos positive cells in the thalamus
Percent of β1-ADR cells expressing c-Fos in MeA (c-Fos; vs vehicle-injected mice): significantly reduced
Spatial navigation retrieval (mice and rats; wild-type mice and rats): produces spatial navigation retrieval deficit

Compound: CC(C)NCC(O)c1ccc(O)c(O)c1 (stereo not drawn) [isoprenaline]
Effect on β-arrestin pathway (β-arrestin pathway): activates both cAMP and β-arrestin pathways
